Results: patent US20240293413A1, “COMPOUND AND METHOD FOR TREATING CHEMOTHERAPY-RELATED GASTROINTESTINAL SIDE EFFECTS” (ONQUALITY PHARMACEUTICALS CHINA LTD., priority 2021, published 2024)

Legend:
Assay type in all cases: in vivo
[1] = system: Chemotherapeutic agent-caused diarrhea models of Balb/c mice; assay: Examples 1-229 (Table 3): oral CDK inhibitor, relief of diarrhea caused by a chemotherapeutic agent;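 also: percent of treated mice whose diarrhea grade fell below chemotherapy-group average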
From the text: Construction of mouse animal models: Chemotherapeutic agent-caused diarrhea models of Balb/c mice were constructed according to the administration mode and frequency of the chemotherapeutic agent as shown in Table 3.
Balb/c mice were fed for 1 week, and then divided into groups. The experiment was divided into a control group, a chemotherapeutic agent group, and a CDK inhibitor group, each of which comprised 10 mice, to perform the administration experiment, for which the administration dosage, mode, time and frequency were shown in Table 3. The control group: being intragastrically administered with the same solvent as that used in the CDK inhibitor group (the time was shown in Table 3), and then being injected/intragastrically administered with the same solvent as that used in the chemotherapeutic agent group (the administration mode was shown in Table 3): the chemotherapeutic agent group: being intragastrically administered with the same solvent as that used in the CDK inhibitor group (the time was shown in Table 3), and then being injected/intragastrically administered with the chemotherapeutic agent (the type, administration mode and dosage were shown in Table 3); the CDK inhibitor group: being intragastrically administered with the CDK inhibitor (the time was shown in Table 3), and then being administered with the chemotherapeutic agent (the mode and dosage were shown in Table 3).
(§1) The diarrhea grading of mice was observed and recorded every day.

[2] = system: Chemotherapeutic agent-caused constipation models of Balb/c mice; assay: Examples 272-342 (Table 5): oral CDK inhibitor, relief of constipation caused by a chemotherapeutic agent; details: cycle 8 days;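 also: percent of treated mice relieved versus chemotherapy group by feces reduction rate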
From the text: Construction of mouse animal models: Chemotherapeutic agent-caused constipation models of Balb/c mice were constructed according to the administration mode and frequency of the chemotherapeutic agent as shown in Table 5.
Balb/c mice were fed for 1 week, and then divided into groups. The experiment was divided into a control group, a chemotherapeutic agent group, and a CDK inhibitor group, each of which comprised 10 mice, to perform the administration experiment, for which the administration dosage, mode, time and frequency were shown in Table 5. The control group: being intragastrically administered with the same solvent as that used in the CDK inhibitor group (the time was shown in Table 5), and then being injected/intragastrically administered with the same solvent as that used in the chemotherapeutic agent group (the administration mode was shown in Table 5): the chemotherapeutic agent group: being intragastrically administered with the same solvent as that used in the CDK inhibitor group (the time was shown in […]), and then being injected/intragastrically administered with the chemotherapeutic agent (the type, administration mode and dosage were shown in Table 5): the CDK inhibitor group: being intragastrically administered with the CDK inhibitor (the time was shown in Table 5), and then being administered with the chemotherapeutic agent (the mode and dosage were shown in Table 5).
Feces reduction rate (%)=(the control group−the chemotherapeutic agent group or the CDK inhibitor group)/the control group*100%
The feces amount of mice within 3 hours was observed and recorded every day.

[3] = system: diarrhea caused by a chemotherapeutic agent in Balb/c mice; assay: Examples 343-381 (Table 6): oral versus intravenous CDK inhibitor, relief of diarrhea caused by a chemotherapeutic agent; details: for Relative remission rate: Example 369, Topotecan (TP) intramuscular injection 10 mg/kg single, 12 h before, cycle 10 days;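 as to Relative remission rate: percent of treated mice whose diarrhea grade fell below chemotherapy-group average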
From the text: Balb/c mice were fed for 1 week, and then divided into groups. The experiment was divided into a control group, a chemotherapeutic agent group, and an oral administration group of a CDK inhibitor, and an intravenous injection group of a CDK inhibitor, each of which comprised 10 mice, to perform the administration experiment, for which the administration dosage, mode, time and frequency were shown in Table 6. The control group: being injected/intragastrically administered with the same solvent as that used in the CDK inhibitor group (the time was shown in Table 6), and then being injected/intragastrically administered with the same solvent as that used in the chemotherapeutic agent group (the administration mode was shown in Table 6): the chemotherapeutic agent group: being injected/intragastrically administered with the same solvent as that used in the CDK inhibitor group (the time was shown in Table 6), and then being injected/intragastrically administered with the chemotherapeutic agent (the type, administration mode and dosage were shown in Table 6): the oral administration group of the CDK inhibitor: being intragastrically administered with the CDK inhibitor (the time was shown in Table 6), and then being administered with the chemotherapeutic agent (the mode and dosage were shown in Table 6): the intravenous injection group of the CDK inhibitor: being injected with the CDK inhibitor through tail vein (the time was shown in Table 6), and then being administered with the chemotherapeutic agent (the mode and dosage were shown in Table 6).
as §1

SMILES: CNC(=O)c1nn(C)c2c1C(C)(C)Cc1cnc(Nc3ccc(N4CCN(C)CC4)cc3)nc1-2 [Milciclib]
- Relative remission rate (%) ([1]; Example 194, Gemcitabine 60 mg/kg and paclitaxel 10 mg/kg intraperitoneal injection single, CDK inhibitor oral 60 mg/kg single, 2 h before, 8 days): 40%
- Relative remission rate ([2]; Example 315, Docetaxel (DTX) intraperitoneal injection 15 mg/kg single, CDK inhibitor oral 60 mg/kg single, 0.5 h before): 30%
- Relative remission rate ([2]; Example 316, Docetaxel (DTX) intraperitoneal injection 15 mg/kg single, CDK inhibitor oral 60 mg/kg single, 4 h before): 20%
- Relative remission rate ([2]; Example 317, Docetaxel (DTX) intraperitoneal injection 15 mg/kg single, CDK inhibitor oral 60 mg/kg single, 8 h before): 20%
- Relative remission rate ([2]; Example 318, Docetaxel (DTX) intraperitoneal injection 15 mg/kg single, CDK inhibitor oral 60 mg/kg single, 12 h before): 30%
- Relative remission rate ([2]; Example 319, Docetaxel (DTX) intraperitoneal injection 15 mg/kg single, CDK inhibitor oral 60 mg/kg single, 24 h before): 10%
- Relative remission rate ([2]; Example 320, Docetaxel (DTX) intraperitoneal injection 15 mg/kg single, CDK inhibitor oral 60 mg/kg single, 48 h before): 0%

SMILES: CN[C@@H]1C[C@H]2O[C@@](C)([C@@H]1OC)n1c3ccccc3c3c4c(c5c6ccccc6n2c5c31)C(=O)N[C@H]4O [KRX-0601]
- Relative remission rate (%) ([1]; Example 165, Docetaxel (DTX) oral administration 30 mg/kg single, CDK inhibitor oral 250 mg/kg single 3 h before, cycle 8 days): 10%
- Relative remission rate ([2]; Example 334, Cytarabine (Ara-C) intramuscular injection 600 mg/kg single, CDK inhibitor oral 40 mg/kg single, 12 h before): 10%
- Relative remission rate ([3]; CDK inhibitor intravenous injection 250 mg/kg single): 10%
- Relative remission rate ([3]; CDK inhibitor oral 250 mg/kg single): 20%
- relief of diarrhea by oral administration and injection administration ([3]; diarrhea caused by etoposide, etoposide in combination with cisplatin, carboplatin, gemcitabine, gemcitabine in combination with carboplatin, and topotecan, oral administration has the most significant effect): effectively relieve diarrhea

SMILES: CC1CCC(n2c3cnccc3c3cnc(Nc4ccc5c(n4)CCN(C(=O)CO)C5)nc32)CC1 (centres unmarked) [FLX-925]
- Relative remission rate (%) ([1]; Example 27, Fluorouracil (5-Fu) intraperitoneal injection 125 mg/kg single, CDK inhibitor oral 75 mg/kg single 4 h before, cycle 10 days): 50%
- Relative remission rate (%) ([1]; Example 69, Oxaliplatin intraperitoneal injection 20 mg/kg single, CDK inhibitor oral 75 mg/kg single 4 h before, cycle 8 days): 60%
- Relative remission rate (%) ([1]; Example 85, Oxaliplatin intravenous injection 17.5 mg/kg single, CDK inhibitor oral 75 mg/kg single 6 h before, cycle 8 days): 60%
- Relative remission rate (%) ([1]; Example 114, Irinotecan (CPT-11) intramuscular injection 250 mg/kg single, CDK inhibitor oral 75 mg/kg single 4 h before, cycle 7 days): 50%

SMILES: CC(C)N1CCN(c2ccc(Nc3ncc4cc5n(c4n3)C3(CCCCC3)CNC5=O)nc2)CC1 [G1T38]
- Relative remission rate (%) ([1]; Example 40, Fluorouracil (5-Fu) intraperitoneal injection 125 mg/kg single, CDK inhibitor oral 150 mg/kg single 1 h before, cycle 10 days): 20%
- Relative remission rate (%) ([1]; Example 41, Fluorouracil (5-Fu) intraperitoneal injection 125 mg/kg single, CDK inhibitor oral 150 mg/kg single 4 h before, cycle 10 days): 40%
- Relative remission rate (%) ([1]; Example 42, Fluorouracil (5-Fu) intraperitoneal injection 125 mg/kg single, CDK inhibitor oral 150 mg/kg single 8 h before, cycle 10 days): 70%
- Relative remission rate (%) ([1]; Example 43, Fluorouracil (5-Fu) intraperitoneal injection 125 mg/kg single, CDK inhibitor oral 150 mg/kg single 16 h before, cycle 10 days): 50%
- Relative remission rate (%) ([1]; Example 79, Oxaliplatin intraperitoneal injection 20 mg/kg single, CDK inhibitor oral 150 mg/kg single 1 h before, cycle 8 days): 20%
- Relative remission rate (%) ([1]; Example 80, Oxaliplatin intraperitoneal injection 20 mg/kg single, CDK inhibitor oral 150 mg/kg single 2 h before, cycle 8 days): 40%
- Relative remission rate (%) ([1]; Example 81, Oxaliplatin intraperitoneal injection 20 mg/kg single, CDK inhibitor oral 150 mg/kg single 4 h before, cycle 8 days): 40%
- Relative remission rate (%) ([1]; Example 82, Oxaliplatin intraperitoneal injection 20 mg/kg single, CDK inhibitor oral 150 mg/kg single 8 h before, cycle 8 days): 70%
- Relative remission rate (%) ([1]; Example 83, Oxaliplatin intraperitoneal injection 20 mg/kg single, CDK inhibitor oral 150 mg/kg single 12 h before, cycle 8 days): 70%
- Relative remission rate (%) ([1]; Example 84, Oxaliplatin intraperitoneal injection 20 mg/kg single, CDK inhibitor oral 150 mg/kg single 16 h before, cycle 8 days): 50%
- Relative remission rate (%) ([1]; Example 125, Irinotecan (CPT-11) intraperitoneal injection 240 mg/kg single, CDK inhibitor oral 150 mg/kg single 4 h before, cycle 7 days): 50%
- Relative remission rate (%) ([1]; Example 126, Irinotecan (CPT-11) intraperitoneal injection 240 mg/kg single, CDK inhibitor oral 150 mg/kg single 6 h before, cycle 7 days): 60%
- Relative remission rate (%) ([1]; Example 128, Irinotecan (CPT-11) intramuscular injection 240 mg/kg single, CDK inhibitor oral 150 mg/kg single 2 h before, cycle 7 days): 50%
- Relative remission rate (%) ([1]; Example 163, Docetaxel (DTX) intraperitoneal injection 10 mg/kg single, CDK inhibitor oral 150 mg/kg single 8 h before, cycle 8 days): 70%
- Relative remission rate (%) ([1]; Example 164, Docetaxel (DTX) intraperitoneal injection 10 mg/kg single, CDK inhibitor oral 150 mg/kg single 12 h before, cycle 8 days): 60%
- Relative remission rate (%) ([1]; Example 211, Carboplatin 5 mg/kg and paclitaxel 10 mg/kg intraperitoneal injection single, CDK inhibitor oral 150 mg/kg single, 8 h before, 10 days): 40%
- Relative remission rate (%) ([1]; Example 212, Carboplatin 5 mg/kg and paclitaxel 10 mg/kg intraperitoneal injection single, CDK inhibitor oral 150 mg/kg single, 12 h before, 10 days): 70%

SMILES: CC[C@H](Nc1nc(NCc2cnc(C)cc2C)c2ncn(C(C)C)c2n1)[C@@H](C)O [Fadraciclib]
- Relative remission rate (%) ([1]; Example 122, Irinotecan (CPT-11) intraperitoneal injection 240 mg/kg single, CDK inhibitor oral 80 mg/kg single 8 h before, cycle 7 days): 30%
- Relative remission rate (%) ([1]; Example 159, Docetaxel (DTX) intraperitoneal injection 10 mg/kg single, CDK inhibitor oral 80 mg/kg single 12 h before, cycle 8 days): 20%

SMILES: Nc1nccc(-c2ccc(O)c(-c3ccnc(N)n3)n2)n1 [BEY-1107]
- Relative remission rate (%) ([1]; Example 154, Docetaxel (DTX) intraperitoneal injection 10 mg/kg single, CDK inhibitor oral 150 mg/kg single 8 h before, cycle 8 days): 40%
- Relative remission rate (%) ([1]; Example 216, Fluorouracil 100 mg/kg and irinotecan 200 mg/kg intravenous injection single, CDK inhibitor oral 150 mg/kg single, 2 h before, 10 days): 30%

SMILES: Cc1c(Br)c(Br)c2c3c1nc(N1CCNCC1)n3CCC2 [SEL120]
- Relative remission rate (%) ([1]; Example 75, Oxaliplatin intraperitoneal injection 20 mg/kg single, CDK inhibitor oral 80 mg/kg single 8 h before, cycle 8 days): 40%
- Relative remission rate (%) ([1]; Example 120, Irinotecan (CPT-11) intraperitoneal injection 240 mg/kg single, CDK inhibitor oral 80 mg/kg single 8 h before, cycle 7 days): 40%

SMILES: CN1CCN(C(=O)c2ccc3cc(CCNc4ncnc5ccc(C#N)cc45)ccc3c2)CC1 [BCD-115]
- Relative remission rate (%) ([1]; Example 157, Docetaxel (DTX) intraperitoneal injection 10 mg/kg single, CDK inhibitor oral 80 mg/kg single 10 h before, cycle 8 days): 40%
- Relative remission rate (%) ([1]; Example 217, Fluorouracil 100 mg/kg and irinotecan 200 mg/kg intravenous injection single, CDK inhibitor oral 80 mg/kg single, 4 h before, 10 days): 20%
